The results in this text go back to US8258158B2 (Hoffmann-La Roche Inc., priority 2009, dated 2012).

Broadly, the IC50 is the concentration that gives 50% inhibition.

For this experiment, the target named is T1, human HSL (Homo sapiens, UniProt Q05469).
T1 construct: overlapping PCR to generate a full length human HSL ORF with a 3′-His6 tag; His6 (C); made in house; host or cells: High 5 insect cells (baculovirus, pFast-BAC)
T1 sequence (Q05469 1-1076): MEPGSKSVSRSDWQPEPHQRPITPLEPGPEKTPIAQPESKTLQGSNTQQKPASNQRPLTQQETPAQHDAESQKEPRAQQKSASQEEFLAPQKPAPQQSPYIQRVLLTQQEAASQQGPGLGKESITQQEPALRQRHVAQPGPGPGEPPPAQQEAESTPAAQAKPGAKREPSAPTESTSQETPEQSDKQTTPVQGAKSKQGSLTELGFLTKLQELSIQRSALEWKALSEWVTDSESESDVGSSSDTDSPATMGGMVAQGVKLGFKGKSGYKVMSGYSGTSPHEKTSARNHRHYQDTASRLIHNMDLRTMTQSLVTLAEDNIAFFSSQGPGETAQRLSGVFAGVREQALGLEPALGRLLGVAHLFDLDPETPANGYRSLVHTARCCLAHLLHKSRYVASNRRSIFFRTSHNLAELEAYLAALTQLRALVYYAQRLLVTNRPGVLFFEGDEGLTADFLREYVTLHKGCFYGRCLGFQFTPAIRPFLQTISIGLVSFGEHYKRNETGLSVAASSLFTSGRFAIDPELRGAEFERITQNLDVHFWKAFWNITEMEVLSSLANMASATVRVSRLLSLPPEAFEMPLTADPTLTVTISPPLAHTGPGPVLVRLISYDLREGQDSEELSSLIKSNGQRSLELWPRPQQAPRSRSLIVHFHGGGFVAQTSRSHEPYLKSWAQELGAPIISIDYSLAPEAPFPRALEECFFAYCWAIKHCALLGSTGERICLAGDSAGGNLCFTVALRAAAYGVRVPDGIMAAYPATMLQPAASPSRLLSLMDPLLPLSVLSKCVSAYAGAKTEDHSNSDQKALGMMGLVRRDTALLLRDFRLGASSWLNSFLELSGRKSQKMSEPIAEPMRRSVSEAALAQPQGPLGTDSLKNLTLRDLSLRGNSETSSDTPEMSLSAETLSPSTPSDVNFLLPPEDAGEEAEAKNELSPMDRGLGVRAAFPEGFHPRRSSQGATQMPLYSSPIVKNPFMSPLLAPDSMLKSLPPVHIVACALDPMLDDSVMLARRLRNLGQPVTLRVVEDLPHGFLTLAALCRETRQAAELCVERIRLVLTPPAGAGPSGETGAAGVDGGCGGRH
The experiment is described as follows: Human hormone-sensitive lipase (HSL) enzyme inhibition assay (colorimetric, DMPT substrate). In kind it is biochemical. As to conditions: human full length HSL-His6; 2,3-dimercapto-1-propanol tributyrate substrate; 37° C., 20 minutes; read-out: HSL hum IC50. As for the experimental part:
Production of Human Full Length Hormone Sensitive Lipase-His^6:
1) Cloning: cDNA was prepared from commercial human brain polyA+ RNA and used as a template in overlapping PCR to generate a full length human HSL ORF with a 3′-His6 tag. This full length insert was cloned into the pFast-BAC vector and the DNA-sequence of several single clones was verified. DNA from a correct full length clone with the 3′His6 tag was used to transform the E. coli strain DH10BAC. Resulting bacmid DNA was used to generate a titered baculovirus stock for protein generation. The sequence of the encoded HSL conforms to Swissprot entry Q05469, with the additional C-terminal His6-tag.
2) Protein purification: Culture: 5.5 L, High 5 cells expressing human full length HSL-His^6, 48 hr., containing 25 μM E-64. Cell count: […], 90% viable. Cells were thawed. On ice, cells were suspended in Base Buffer containing 10% glycerol, 25 mM Tris-Cl, 300 mM NaCl, 10 mM imidazole, 10 mM 2-mercaptoethanol, 2 μg pepstatin/ml, 2 μg leupeptin/ml, 2 μg antipain/ml, pH 8.0 at 4° C. in a final volume of 475 ml with 3.75×10^7 cells/ml. […] was done at 3×30 sec., Lubrol PX was added to 0.2% final concentration followed by stirring for 15 min. at 4° C. and centrifugation at 25 k×g, 60 min., 4° C. Soluble proteins were mixed with 60 ml of pre-washed and equilibrated Ni-NTA Agarose (Qiagen 30210) followed by tumbling end-over-end, 45 min., 4° C., centrifugation 1000 rpm 5 min and letting resin settle 5 min. Supernatant was removed, the resin washed in the centrifuge vessel using 5 volumes of Base Buffer containing 0.2% Lubrol PX. Centrifugation was done again, then the supernatant discarded. The resin was poured onto a 0.8 μm membrane in a disposable filter unit (Nalge 450-0080), and washed with 5 volumes of Base Buffer containing 0.2% Lubrol PX. It was then washed with 30 volumes of Base Buffer containing 60 mM imidazole pH 7.5 at 4° C. The protein was eluated with 5 volumes of 25 mM Tris-Cl, 300 mM NaCl, 200 mM imidazole, 10 mM 2-mercaptoethanol, pH 7.5 at 4° C. by tumbling resin with buffer end-over-end, 30 min., 4° C. The resin was captured on a 0.2 μm membrane disposable filter unit (Millipore SCGP U02 RE) and the eluate collected in the reservoir. The eluate was concentrated using a 30 k MWCO centrifugal filter device (Sartorius Vivascience Vivacell 100, VC1022), to 20 ml. It was then dialyzed overnight at 4° C., two times against 2 L of 10% glycerol, 25 mM Tris-Cl, 300 mM NaCl, 0.2 mM EDTA, 0.2 mM DTT, pH 7.5 at 4° C. The protein was filtered using a 0.22 μm disposable filter unit (Millipore SCGP00525). The protein concentration was calculated from absorbance at 280 nm, using 280=0.67 cm-1 mg-1. Yield was 235 mg, total. The protein was stored at −80° C.
Human Hormone-Sensitive Lipase (HSL) Enzyme Inhibition Assay:
HSL enzyme activity was measured by a colorimetric assay using 2,3-dimercapto-1-propanol tributyrate (Aldrich, St. Louis, Mo.) as a substrate. Typically, 1.5 mM 2,3-dimercapto-1-propanol tributyrate (DMPT) in 100 mM MOPS, pH 7.2, 0.2 mg/ml fatty acid-free BSA was prepared by sonication at 4° C. to homogenous suspension. Test compounds (2 mM stock in DMSO) were diluted 3 fold in series in DMSO. Compound solutions were diluted 24 fold in 1.5 mM DMPT containing solution and 18 ul per well was added to 384-well microplates (Corning Costar). Twelve microliters per well of human HSL (15 ug/ml) was added and the reaction mixture was incubated at 37° C. for 20 minutes. Six microliters of 12 mM dithio-bis-(2-nitrobenzoic acid) (DTNB) in DMSO plus 1.2% SDS and 0.6% Triton X-100 were added and the mixture was incubated at room temperature for 15 minutes. Product production was monitored by reading absorbance at 405 nm on an Envision Reader (PerkinElmer Life and Analytical Sciences, Shelton, Conn.).

In the case of `CCN(C(=O)C1CCN(S(=O)(=O)c2ccc(C)cc2)CC1)c1ccc(OC(C)C(F)(F)F)cc1` (racemic) [Example 4, (rac)-1-(Toluene-4-sulfonyl)-piperidine-4-carboxylic acid ethyl-[4-(2,2,2-trifluoro-1-methyl-ethoxy)-phenyl]-amide], the half-maximal inhibitory concentration (IC50) was determined as 3 µM.
The result for `Cc1ccc(S(=O)(=O)N2CCC(C(=O)N(C)c3ccc(OC(C)C(F)(F)F)cc3)CC2)cc1` (racemic) [Example 5, (rac)-1-(Toluene-4-sulfonyl)-piperidine-4-carboxylic acid methyl-[4-(2,2,2-trifluoro-1-methyl-ethoxy)-phenyl]-amide] reads 0.12 µM; that for `Cc1ccc(S(=O)(=O)N2CCC(C(=O)Nc3ccc(OC(C)C(F)(F)F)nc3)CC2)cc1` (racemic) [Example 6, (rac)-1-(Toluene-4-sulfonyl)-piperidine-4-carboxylic acid [6-(2,2,2-trifluoro-1-methyl-ethoxy)-pyridin-3-yl]-amide], 0.12 µM.
Then `CN(C(=O)[C@H]1CCN(S(=O)(=O)c2ccccc2Cl)[C@H](CO)C1)c1ccc(OC(F)(F)F)cc1` (racemic) [Example 11, (2S,4S)-1-(2-Chloro-benzenesulfonyl)-2-hydroxymethyl-piperidine-4-carboxylic acid methyl-(4-trifluoromethoxy-phenyl)-amide and (2R,4R)-1-(2-Chloro-benzenesulfonyl)-2-hydroxymethyl-piperidine-4-carboxylic acid methyl-(4-trifluoromethoxy-phenyl)-amide], with 0.08 µM.
The result for `COC[C@@H]1C[C@@H](C(=O)Nc2ccc(OC(F)(F)F)cc2)CCN1S(=O)(=O)c1ccc(C)cc1` (racemic) [Example 23, Racemic Mixture of Example 23a which is (2S,4S)-2-Methoxymethyl-1-(toluene-4-sulfonyl)-piperidine-4-carboxylic acid (4-trifluoromethoxy-phenyl)-amide and Example 23b which is (2R,4R)-2-Methoxymethyl-1-(toluene-4-sulfonyl)-piperidine-4-carboxylic acid (4-trifluoromethoxy-phenyl)-amide] reads 0.11 µM; that for `CC(Oc1ccc(NC(=O)C2(CO)CCN(S(=O)(=O)c3ccccc3Cl)CC2)cc1)C(F)(F)F` (racemic) [Example 24, 1-(2-Chloro-benzenesulfonyl)-4-hydroxymethyl-piperidine-4-carboxylic acid [4-(2,2,2-trifluoro-1-methyl-ethoxy)-phenyl]-amide], 1.14 µM; that for `Cc1ccc(S(=O)(=O)N2CCC(C(=O)Nc3ccc(OC(C)C(F)(F)F)cc3)CC2)cc1` (racemic) [Example 25, (rac)-1-(toluene-4-sulfonyl)-piperidine-4-carboxylic acid [4-(2,2,2-trifluoro-1-methyl-ethoxy)-phenyl]-amide], 0.09 µM.
For the molecule `CC(Oc1ccc(NC(=O)C2(CO)CCN(S(=O)(=O)c3ccccc3)CC2)cc1)C(F)(F)F` (racemic) [Example 27, (rac)-1-Benzenesulfonyl-4-hydroxymethyl-piperidine-4-carboxylic acid [4-(2,2,2-trifluoro-1-methyl-ethoxy)-phenyl]-amide], the IC50 was 0.95 µM.
Then `Cc1ccc(S(=O)(=O)N2CCC(F)(C(=O)Nc3ccc(OC(C)C(F)(F)F)cc3)CC2)cc1` (racemic) [Example 32, (rac-4-Fluoro-1-(toluene-4-sulfonyl)-piperidine-4-carboxylic acid [4-(2,2,2-trifluoro-1-methyl-ethoxy)-phenyl]-amide], with 0.92 µM.
Then `Cc1ccc(S(=O)(=O)N2CCC(C(=O)Nc3ccc(OC(C)C4CC4)cc3)CC2)cc1` (racemic) [Example 34, (rac)-1-(Toluene-4-sulfonyl)-piperidine-4-carboxylic acid [4-(1-cyclopropyl-ethoxy)-phenyl]-amide], with 0.09 µM.
The result for `O=C(Nc1ccc(OC(F)(F)F)cc1)[C@H]1CCN(S(=O)(=O)c2ccccc2Cl)[C@H](CO)C1` (racemic) [Example 36, (2S,4S)-1-(2-Chloro-benzenesulfonyl)-2-hydroxymethyl-piperidine-4-carboxylic acid (4-trifluoromethoxy-phenyl)-amide and (2R,4R)-1-(2-Chloro-benzenesulfonyl)-2-hydroxymethyl-piperidine-4-carboxylic acid (4-trifluoromethoxy-phenyl)-amide] reads 0.05 µM; that for `CC(Oc1ccc(NC(=O)C2CCN(S(=O)(=O)c3ccccc3Cl)CC2)cc1)C(F)(F)F` (racemic) [Example 40, (rac)-1-(2-Chloro-benzenesulfonyl)-piperidine-4-carboxylic acid [4-(2,2,2-trifluoro-1-methyl-ethoxy)-phenyl]-amide], 0.07 µM.
For the molecule `Cc1ccc(S(=O)(=O)N2CC[C@H](C(=O)Nc3ccc(OC(F)(F)F)cc3)C[C@H]2CO)cc1` (racemic) [Example 42, (2S,4S)-2-Hydroxymethyl-1-(toluene-4-sulfonyl)-piperidine-4-carboxylic acid (4-trifluoromethoxy-phenyl)-amide and (2R,4R)-2-Hydroxymethyl-1-(toluene-4-sulfonyl)-piperidine-4-carboxylic acid (4-trifluoromethoxy-phenyl)-amide], the half-inhibitory concentration (IC50) worked out at 0.04 µM.
Consider `Cc1ccc(S(=O)(=O)N2CCC(C)(C(=O)Nc3ccc(OC(C)C(F)(F)F)cc3)CC2)cc1` (racemic) [Example 43, (rac)-4-Methyl-1-(toluene-4-sulfonyl)-piperidine-4-carboxylic acid [4-(2,2,2-trifluoro-1-methyl-ethoxy)-phenyl]-amide], for which the IC50 stood at 0.81 µM.
